Reference: US5527796A, “Thienothiazine derivatives and their use” (Chemisch Pharmazeutische Forschungsgesellschaft m.b.H., priority 1992, dated 1996)

Columns and labels:
5-lipoxygenase = biological target: T1, 5-lipoxygenase (Rattus norvegicus, UniProt P12527); test: formation of LTB4 by neutrophils as a measure for 5-lipoxygenase activity (A23187-stimulated, RIA); format: cell-based, Male Sprague Dawley rats; conditions: A23187 2 μmol/l, 5 min at 37° C.
T1 construct: neutrophils harvested by aspiration; endogenous in cells; host or cells: peritoneal neutrophils of male Sprague Dawley rats, harvested 16 h after intraperitoneal carrageenan
T1 sequence (P12527 1-673): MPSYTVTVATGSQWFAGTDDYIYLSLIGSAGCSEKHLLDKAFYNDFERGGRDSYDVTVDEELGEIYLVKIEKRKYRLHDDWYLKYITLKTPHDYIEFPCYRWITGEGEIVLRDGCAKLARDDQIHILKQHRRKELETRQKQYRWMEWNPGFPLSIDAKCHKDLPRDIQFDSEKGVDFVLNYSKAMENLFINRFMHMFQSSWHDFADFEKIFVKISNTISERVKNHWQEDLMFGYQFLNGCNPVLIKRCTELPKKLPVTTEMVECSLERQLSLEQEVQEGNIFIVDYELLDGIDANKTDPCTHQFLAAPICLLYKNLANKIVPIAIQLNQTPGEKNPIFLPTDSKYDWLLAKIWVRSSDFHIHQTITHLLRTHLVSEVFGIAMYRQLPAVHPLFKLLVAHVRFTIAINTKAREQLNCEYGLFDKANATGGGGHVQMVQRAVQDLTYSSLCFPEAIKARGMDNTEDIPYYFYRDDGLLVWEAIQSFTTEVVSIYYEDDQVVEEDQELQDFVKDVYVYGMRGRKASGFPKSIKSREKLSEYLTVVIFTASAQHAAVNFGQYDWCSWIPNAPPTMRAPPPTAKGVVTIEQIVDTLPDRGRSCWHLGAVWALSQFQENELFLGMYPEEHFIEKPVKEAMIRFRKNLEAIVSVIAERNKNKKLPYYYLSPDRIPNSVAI
Procedure: (§1) The formation of PGD2 by neutrophils was used as a measure for cyclooxygenase activity and the formation of LTB4 was used as a measure for 5-lipoxygenase activity.
(§2) Male Sprague Dawley rats (250-300 g) were injected with lambda carrageenan 1 mg intraperitoneally (dissolved in 0.5 ml dest.water) per animal. After 16 hours the rats were killed by exposure to diethylether. 15 ml ice cold Hanks balanced salt solution were injected i.p., neutrophils harvested by aspiration (10 ml), centrifuged (5 min, 100 g, 4° C.), the supernatant decanted and cells resuspended in HBSS at 4° C. to 5×10^6 cells/mi. 400 μl cell suspension (2×10^6 cells), 0.5 μl drugs dissolved in DMSO and 49.5 μl HBSS were incubated for 5 min at 37° C. Then 50 μl A23187 (2 μmol/l final conc.) were added followed by 5 min incubation at 37° C. The reaction was stopped by centrifugation for 30 s at 10000 g and the supernatant transferred to precooled plastic tubes and kept in an ice bath for max. 1 hour before starting RIA. PGD2 and LTB4 in the samples were measured after appropriate dilution with HBSS using commercial RIA kits.
(§3) Using the above mentioned methods the new compounds were tested. The inhibition of cyclooxygenase and of 5-lipoxygenase was measured.

cyclooxygenase = test: formation of PGD2 by neutrophils as a measure for cyclooxygenase activity (A23187-stimulated, RIA); format: cell-based, Male Sprague Dawley rats; conditions: for IC50: rat neutrophils, A23187 2 μmol/l, 5 min at 37° C., RIA of PGD2
Procedure: as §1, §2, §3

Row | Compound | IC50 (5-lipoxygenase) | inhibition of cyclooxygenase (in words) (cyclooxygenase; PGD2 formation) | IC50 (cyclooxygenase)
1 | CN1C(C(=O)Nc2ccccn2)=C(O)c2sc(Cl)cc2S1(=O)=O [Compound A, 6-chloro-4-hydroxy-2-methylo-N-(2-pyridyl)-2h-thieno[2,3-e]-1,2-thiazine-3-carboxamide-1,1-dioxide, reference compound] | > 10000 nM | inhibited only cyclooxygenase | 20 nM
2 | CN1C(C(=O)Nc2cccc(CCc3ccccc3)n2)=C(O)c2sc(Cl)cc2S1(=O)=O [Example 4, 6-Chloro-4-hydroxy-2-methyl-N-[6-(2-phenylethyl)-2-pyridyl]-2H-thieno[2,3-e]-1,2-thiazine-3-carboxamide-1,1-dioxide] | 2700 nM |  | 190 nM
3 | CN1C(C(=O)Nc2cccc(C#Cc3ccccc3)n2)=C(O)c2sc(Cl)cc2S1(=O)=O [Example 7, 6-Chloro-4-hydroxy-2-methyl-N-[6-phenylethinyl]-2-pyridyl-2H-thieno[2,3-e]-1,2-thiazin-3-carbox-amide-1,1,-dioxide] | 3700 nM |  | 410 nM
4 | CN1C(C(=O)Nc2cccc(CCCc3ccccc3)n2)=C(O)c2sc(Cl)cc2S1(=O)=O [Example 8, 6-Chloro-4-hydroxy-2-methyl-N-[6-(3-phenylpropyl)]-2-pyridyl-2H-thieno[2,3-e]-1,2-thiazin-3-carbox-amide-1,1,-dioxide] | 4200 nM |  | 510 nM
5 | CN1C(C(=O)Nc2cccc(CCCCc3ccccc3)n2)=C(O)c2sc(Cl)cc2S1(=O)=O [Example 9, 6-Chloro-4-hydroxy-2-methyl-N-[6-(4-phenylbutyl)]-2-pyridyl-2H-thieno[2,3-e]-1,2-thiazin-3-carbox-amide-1,1,-dioxide] | 1900 nM |  | 750 nM
6 | CN1C(C(=O)Nc2cccc(COc3ccc(F)cc3)n2)=C(O)c2sc(Cl)cc2S1(=O)=O [Example 10, 6-Chloro-4-hydroxy-2-methyl-N-[6-(4-fluorphenoxy-methyl)]-2-pyridyl-2H-thieno[2,3-e]-1,2-thiazin-3-carboxamide-1,1,-dioxide] | 4800 nM |  | 450 nM
7 | CN1C(C(=O)Nc2cccc(COc3ccccc3)n2)=C(O)c2sc(Cl)cc2S1(=O)=O [Example 11] | 7300 nM |  | 120 nM
8 | CN1C(C(=O)Nc2cccc(-c3cc4ccccc4o3)n2)=C(O)c2sc(Cl)cc2S1(=O)=O [Example 12, 6-Chloro-4-hydroxy-2-methyl-N-[6-(2-benzo(b)furyl)]-2-pyridyl-2H-thieno[2,3-e]-1,2-thiazin-3-carbox-amide-1,1,-diol] | 2000 nM |  | 16 nM
9 | CN1C(C(=O)Nc2cccc(OCc3ccccc3)n2)=C(O)c2sc(Cl)cc2S1(=O)=O [Example 13, 6-Chloro-4-hydroxy-2-methyl-N-[6-phenylmethoxy]-2-pyridyl-2H-thieno[2,3-e]-1,2-thiazin-3-carbox-amide-1,1,-dioxide] | 5100 nM |  | 150 nM
10 | CN1C(C(=O)Nc2cccc(/C=C/c3ccccc3)n2)=C(O)c2sc(Cl)cc2S1(=O)=O [Example 14, 6-Chloro-4-hydroxy-2-methyl-N-[6-((E)-2-phenylethenyl)]-2-pyridyl-2H-thieno[2,3-e]-1,2-thiazin-3-carbox-amide-1,1,-dioxide] | 4300 nM |  | 180 nM
11 | CN1C(C(=O)Nc2cccc(OCc3ccc4ccccc4n3)n2)=C(O)c2sc(Cl)cc2S1(=O)=O [Example 17, 6-Chloro-4-hydroxy-2-methyl-N-[6-quinalinylmethoxy]-2-pyridyl-2H-thieno[2,3-e]-1,2-thiazin-3-carbox-amide-1,1,-dioxide] | 2000 nM |  | 660 nM
12 | CN1C(C(=O)Nc2cccc(OCc3cc4ccccc4s3)n2)=C(O)c2sc(Cl)cc2S1(=O)=O [Example 20] | 3200 nM |  | 350 nM
